Data set [1] has as its target T1, Heat shock factor protein 1 (Mus musculus, UniProt P38532).
T1 sequence (P38532 whole entry): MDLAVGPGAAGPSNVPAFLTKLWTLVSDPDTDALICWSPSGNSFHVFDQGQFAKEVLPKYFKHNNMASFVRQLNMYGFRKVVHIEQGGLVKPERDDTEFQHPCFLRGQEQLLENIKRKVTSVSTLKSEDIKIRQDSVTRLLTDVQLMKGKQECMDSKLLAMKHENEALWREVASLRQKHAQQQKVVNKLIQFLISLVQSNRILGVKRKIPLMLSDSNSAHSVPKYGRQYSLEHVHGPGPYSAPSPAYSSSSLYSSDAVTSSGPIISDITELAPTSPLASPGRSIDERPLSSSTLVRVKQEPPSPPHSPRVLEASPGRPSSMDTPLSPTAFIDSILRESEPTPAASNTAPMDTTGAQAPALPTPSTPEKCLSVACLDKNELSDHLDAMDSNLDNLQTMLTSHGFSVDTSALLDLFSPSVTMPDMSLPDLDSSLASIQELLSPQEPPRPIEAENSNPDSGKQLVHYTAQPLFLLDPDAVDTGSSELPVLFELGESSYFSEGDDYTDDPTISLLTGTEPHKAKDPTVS
The data set can be described thus: inhibition of MG132-induced HSE-luciferase signal, confirmation, cell-based, NIH3T3, luminescence, dose retest (AID 2382).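 Further: NIH3T3 fibroblasts with HSF1-driven luciferase reporter stressed by proteasome inhibitor MG132; luminescence from HSF1-driven luciferase expression after 8 hours of MG132 stress.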 It is filed as functional.

Data set [2] in a line: cytotoxicity in HEK-293T cells, dose response, cytotoxicity control for BCR NF-kB inhibitor project, luminescence, B-cell screen hits (AID 489021).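 Further: HEK-293T cells carrying an NF-kB luciferase reporter; cells exposed to compound for about 14 hours before viability readout.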 Type of data set: functional, cell-based.
The target of data set [3] is T2, Cytochrome P450 3A4 (Homo sapiens, UniProt P08684).
For another data set, the target named is Cytochrome P450 2C19 (Homo sapiens, UniProt P33261). Description: Cytochrome panel assay with activity outcomes. Panel member name: p450-cyp2c19 Compounds with AC50 equal or less than 10 uM are considered active. It is filed as functional. To be noted: read-out: AC50.
Data set [4] concerns the target T2, Cytochrome P450 3A4. This is another data set of the same source.
Data set [5] concerns the target T1, Heat shock factor protein 1. The data set can be described thus: HSF1 potentiators in luciferase reporter cells, confirmation, cell-based, NIH3T3, luminescence, dose retest (AID 435004).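 Further: stress induced by proteasome inhibitor MG132 added 30 min after compound; luciferase reporter driven by HSF1 response element in NIH3T3 cells; actives raise luminescence as potentiators of the MG132 stress response.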 Type of data set: functional.
Data set [6] is described as follows: Luminescence Cell-Based Dose Confirmation HTS to Identify Activators of 5'UTR Stem-Loop Driven Alpha-Synuclein mRNA Translation in H4 Neuroglioblastoma Cells. [Related pubchem assays: 1829 (Project Summary), 1814 (Primary HTS)]. It is filed as functional.
Data set [7] in a line: Luminescence Cell-Based Dose Response HTS to Identify Activators of Luciferase Translation or Activity in H4 […] Cells. [Related pubchem assays: 1829 (Project Summary), 1814 (Primary HTS)]. It is filed as functional.
Data set [8] relates to Streptococcus sp. 'group A'. The data set can be described thus: growth inhibition of control SK(-) GAS strain, dose response, counter-screen for streptokinase expression inhibitor project, luminescence, kanamycin, BacTiterGlo, confirmation (AID 1900). Type of data set: functional, organism-based.
In the next data set the test system is H4. The data set can be described thus: Luminescence Cell-Based Dose Response HTS to Identify Activators of 5'UTR Stem-Loop Driven Prion Protein mRNA Translation in H4 Neuroglioblastoma Cells. [Related pubchem assays: 1829 (Project Summary), 1814 (Primary HTS)]. It is filed as functional. To be noted: Homo sapiens.
The next data set has as its target T3, Streptokinase A (Streptococcus pyogenes serotype M1, UniProt P10520).
T3 sequence (P10520 whole entry): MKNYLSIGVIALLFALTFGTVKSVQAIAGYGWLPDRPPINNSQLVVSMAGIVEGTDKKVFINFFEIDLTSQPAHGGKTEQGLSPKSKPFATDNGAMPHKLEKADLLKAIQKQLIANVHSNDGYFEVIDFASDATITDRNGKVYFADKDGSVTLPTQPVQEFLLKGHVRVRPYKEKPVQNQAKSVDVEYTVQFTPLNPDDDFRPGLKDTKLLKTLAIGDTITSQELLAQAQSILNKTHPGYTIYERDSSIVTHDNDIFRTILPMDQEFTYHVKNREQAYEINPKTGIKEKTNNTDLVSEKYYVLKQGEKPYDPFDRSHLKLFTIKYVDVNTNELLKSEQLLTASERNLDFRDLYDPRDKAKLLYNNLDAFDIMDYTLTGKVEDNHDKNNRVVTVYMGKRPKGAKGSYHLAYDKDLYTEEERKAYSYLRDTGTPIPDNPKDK
The data set can be described thus: S. pyogenes streptokinase expression inhibitors, potency, dose response, plasminogen activation absorbance, OD405 (AID 1914).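 Further: secreted streptokinase activity via plasminogen activation per viability signal from cell pellet.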 Type of data set: functional, Streptococcus pyogenes M1 GAS.

Another data set concerns Streptococcus. Description: Group A Streptococcus viability loss, dose response, counter-screen for streptokinase expression inhibitor project, luminescence, BacTiterGlo (AID 1915).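 Further: potency for reduction of bacterial viability or growth.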 Type of data set: functional, organism-based.
Another data set concerns the target Cytochrome P450 2C9 (Homo sapiens, UniProt P11712).
The nature of data set [9]: microbe, parasite or virus in culture. To be noted: Mycobacterium tuberculosis. It is filed as functional.
The nature of data set [10]: THP-1 cell cytotoxicity, dose response, cytotoxicity control for non-replicating M. tuberculosis project (AID 489025). It is filed as functional.
The nature of data set [11]: Vero E6 cell cytotoxicity, dose response, cytotoxicity control for non-replicating M. tuberculosis project, secondary assay (AID 492998). Type of data set: functional, VeroE6. To be noted: Vero C1008.
The next data set in a line: cells. It is filed as functional.

Activity calls are given as the source filed them.

T2 sequence (P08684 whole entry): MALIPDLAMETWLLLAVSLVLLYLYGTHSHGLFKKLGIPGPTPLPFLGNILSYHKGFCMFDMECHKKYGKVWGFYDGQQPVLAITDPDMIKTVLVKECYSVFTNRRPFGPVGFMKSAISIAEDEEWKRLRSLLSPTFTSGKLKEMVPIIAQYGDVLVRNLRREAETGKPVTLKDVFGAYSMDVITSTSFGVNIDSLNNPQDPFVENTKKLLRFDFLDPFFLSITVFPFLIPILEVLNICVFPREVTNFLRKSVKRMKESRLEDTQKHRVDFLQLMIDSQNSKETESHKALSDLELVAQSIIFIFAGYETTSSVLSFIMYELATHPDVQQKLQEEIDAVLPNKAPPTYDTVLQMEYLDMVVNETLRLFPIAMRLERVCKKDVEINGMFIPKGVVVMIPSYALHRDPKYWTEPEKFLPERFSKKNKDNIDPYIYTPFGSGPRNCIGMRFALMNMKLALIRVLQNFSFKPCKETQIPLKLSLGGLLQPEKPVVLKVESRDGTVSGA
Chain of Cytochrome P450 2C19 (P33261 whole entry): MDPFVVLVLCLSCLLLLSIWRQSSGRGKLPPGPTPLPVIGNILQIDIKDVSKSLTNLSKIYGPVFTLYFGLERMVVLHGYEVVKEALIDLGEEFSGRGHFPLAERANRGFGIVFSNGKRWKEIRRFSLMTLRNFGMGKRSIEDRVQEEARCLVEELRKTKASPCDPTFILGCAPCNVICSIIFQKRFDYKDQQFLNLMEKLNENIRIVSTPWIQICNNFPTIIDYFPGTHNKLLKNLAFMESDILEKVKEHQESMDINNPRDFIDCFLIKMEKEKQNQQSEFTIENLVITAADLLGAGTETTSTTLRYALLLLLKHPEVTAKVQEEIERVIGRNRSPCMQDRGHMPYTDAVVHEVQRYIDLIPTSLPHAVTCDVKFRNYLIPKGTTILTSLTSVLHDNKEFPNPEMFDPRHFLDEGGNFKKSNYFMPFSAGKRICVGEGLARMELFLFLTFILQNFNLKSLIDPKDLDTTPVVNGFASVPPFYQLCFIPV
Chain of Cytochrome P450 2C9 (P11712 whole entry): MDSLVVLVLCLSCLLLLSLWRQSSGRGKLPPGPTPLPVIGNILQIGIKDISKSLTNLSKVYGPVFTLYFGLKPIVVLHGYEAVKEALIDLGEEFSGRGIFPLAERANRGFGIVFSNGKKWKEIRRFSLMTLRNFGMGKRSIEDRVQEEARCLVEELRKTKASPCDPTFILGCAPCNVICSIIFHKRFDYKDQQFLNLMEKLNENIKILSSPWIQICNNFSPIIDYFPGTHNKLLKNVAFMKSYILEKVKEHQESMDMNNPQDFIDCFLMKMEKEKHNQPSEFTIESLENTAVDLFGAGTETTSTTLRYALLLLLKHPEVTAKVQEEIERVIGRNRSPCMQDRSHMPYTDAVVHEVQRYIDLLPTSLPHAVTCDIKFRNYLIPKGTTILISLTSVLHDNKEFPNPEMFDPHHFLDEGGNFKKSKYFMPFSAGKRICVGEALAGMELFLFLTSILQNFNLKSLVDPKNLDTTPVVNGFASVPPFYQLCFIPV

The EC50 is the concentration that produces a half-maximal response. A word on the IC50: it is the concentration at which inhibition is half-maximal. For the compound `O=C(O)CCN1C(=O)/C(=C/c2nc3ccccc3[nH]2)SC1=S`, the EC50 in data set [1] is 7.78 µM (active). For the same compound, the IC50 in [2] was > 80 µM (inactive).
What is called AC50 is the midpoint of the concentration-response curve, whichever way the signal moves. Take `COc1ccc(NC(=O)N2CCC3(CC2)CCN(C(=O)c2cccc(F)c2)CC3)cc1`: on Cytochrome P450 3A4 [3], the AC50 entry is given as “inconclusive”.
Regarding `Cc1cc(N2CCOCC2)nc2ccc(Cc3ccc4nc(N5CCOCC5)cc(C)c4c3)cc12`, the AC50 result at Cytochrome P450 3A4 [3] is “inconclusive”.
On to `O=C(NCCCN1CCC(Cc2ccccc2)CC1)C1CCN(S(=O)(=O)N2CCOCC2)CC1`, for which the concentration at half-maximal activity (AC50) on Cytochrome P450 2C19 is 25.1 µM (inconclusive); on Cytochrome P450 3A4 [3], “inconclusive”.
On to `CCCC(=O)N1CCN(c2ccc(NC(=O)c3ccc(OCC)c([N+](=O)[O-])c3)cc2)CC1`, for which the AC50 on Cytochrome P450 2C19 is 28.2 µM (inconclusive); on Cytochrome P450 3A4 [3], “inconclusive”.
As to `CCN(CC(=O)Nc1c(F)cccc1F)C(=O)c1cc(S(=O)(=O)N2CCOCC2)ccc1N1CCCC1`, the IC50 in data set [2] is > 80 µM (inactive).
With `C[C@H](O/N=C1/[C@H]2O[C@@H]2[C@@H](O)[C@H]2[C@H]1CCn1c(=O)n(-c3ccccc3)c(=O)n12)c1cn([C@H](CO)Cc2ccccc2)nn1`, the AC50 at Cytochrome P450 3A4 [4] and at Cytochrome P450 3A4 [3] was 3.98 µM (inconclusive) throughout.
For `CCOc1ccccc1CNCCN1CCOCC1.Cl`, the EC50 in data set [5] was > 260 µM (inactive). Further, on Cytochrome P450 3A4 [3], the AC50 entry is “inconclusive”.
Regarding `COc1ccc(/C=C/c2ccccc2)cc1[C@H]1[C@H]2C=CC[C@@H](C)[C@@H]2C(=O)N1Cc1ccccc1`, the IC50 in data set [2] was > 80 µM (inactive).
Turning to `CC1CCN(c2ccc(-c3ccc(NC(=O)c4ccco4)cc3)nn2)CC1`, the EC50 in [6] is 18.6 µM (active); in data set [7], > 120 µM (not active); in data set [8] it was > 150 µM (not active); in the data set with H4 it was 120 µM (active); on Streptokinase A, > 150 µM (not active); in the data set on Streptococcus, > 150 µM (not active).
On to `COc1ccc(C2=NCc3nnc(C)n3-c3ccc(Cl)cc32)cc1Cl`, for which the IC50 in data set [2] is > 80 µM (inactive).
Consider `Cn1c(=O)c(-c2ccc(Cl)cc2)nc2cnc(N3CCOCC3)nc21`, for which the AC50 result at Cytochrome P450 3A4 [3] and on Cytochrome P450 2C9 was “inconclusive” each time.
Take `COc1ccc(C(=O)N/N=C/c2sc(N3CCOCC3)nc2-c2ccccc2)cc1OC`: in data set [2], the IC50 is 63.1 µM (inactive).
Consider `Cc1ccc2nc(N/C(N)=N/C(=O)NC3CCCCC3)nc(C)c2c1`, for which the figures for the EC50 (in [8]; in the data set on Streptococcus) were 5.35 µM (active) and > 150 µM (not active), respectively. Further, the CC50 in data set [9] is 21.1 µM (active); in data set [10] it was 23.2 µM (active); in data set [11], 18.5 µM (active). The IC50 in “cells” was 3.74 µM (active).

For the origin of these results see ChEMBL document CHEMBL1201862, “PubChem BioAssay data set” (2004).
